In patent US20100298141A1, “SUBSTITUTED PYRIDINE N-OXIDE HERBICIDES” (E. I. DU PONT DE NEMOURS AND COMPANY, priority 2007, published 2010):

Assays:
barnyardgrass = test: Test A pre-/postemergence greenhouse test; type: in vivo, Echinochloa crus-galli; settings: for Plant response rating, Barnyardgrass: 0 to 100 scale where 0 is no effect and 100 is complete control; for Barnyardgrass plant response rating: 0 to 100 scale
Method in brief: (§1)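 Seeds sown in a loam soil–sand blend got a preemergence directed soil spray of compound in a non-phytotoxic solvent mixture containing surfactant. Postemergence sprays of the same formulation went at the same time onto plants 2–10 cm tall at the one- to two-leaf stage. Injury was scored visually against untreated controls after about ten days in the greenhouse.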

redroot pigweed = test: Test A pre-/postemergence greenhouse test; type: in vivo, Amaranthus retroflexus; settings: for Plant response rating, Pigweed: 0 to 100 scale where 0 is no effect and 100 is complete control; for Pigweed plant response rating: 0 to 100 scale
Method in brief: as §1

velvetleaf [1] = test: Test A pre-/postemergence greenhouse test; type: in vivo, Abutilon theophrasti; settings: for Plant response rating, Velvetleaf: 0 to 100 scale where 0 is no effect and 100 is complete control; for Velvetleaf plant response rating: 0 to 100 scale
Method in brief: as §1

downy brome = test: Test C pre-/postemergence test; type: in vivo, Bromus tectorum
Method in brief: (§2)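 Compounds in a non-phytotoxic solvent with surfactant applied preemergence to seeded pots and, at the same time, postemergence to plants 2–18 cm tall (1- to 4-leaf stage). Paddy tests: pots flooded to 3 cm, compound applied into the water, depth held throughout.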

green foxtail = test: Test C pre-/postemergence test; type: in vivo, Setaria viridis
Method in brief: as §2

wild oat = test: Test C pre-/postemergence test; type: in vivo, Avena fatua
Method in brief: as §2

Surinam grass = test: Test C pre-/postemergence test; type: in vivo, Brachiaria decumbens
Method in brief: as §2

cocklebur = test: Test C pre-/postemergence test; type: in vivo, Xanthium strumarium
Method in brief: as §2

crabgrass = test: Test C pre-/postemergence test; type: in vivo, Digitaria sanguinalis
Method in brief: as §2

giant foxtail = test: Test C pre-/postemergence test; type: in vivo, Setaria faberii
Method in brief: as §2

johnsongrass = test: Test C pre-/postemergence test; type: in vivo, Sorghum halepense
Method in brief: as §2

kochia = test: Test C pre-/postemergence test; type: in vivo, Kochia scoparia; settings: for Kochia plant response rating: preemergence, scale 0 (no effect) to 100 (complete control)
Method in brief: as §2

lambsquarters = test: Test C pre-/postemergence test; type: in vivo, Chenopodium album; settings: preemergence, scale 0 (no effect) to 100 (complete control)
Method in brief: as §2

eastern black nightshade = test: Test C pre-/postemergence test; type: in vivo, Solanum ptycanthum
Method in brief: as §2

common ragweed = test: Test C pre-/postemergence test; type: in vivo, Ambrosia elation
Method in brief: as §2

velvetleaf [2] = test: Test C pre-/postemergence test; type: in vivo, Abutilon theophrasti
Method in brief: as §2

rice = test: Test C flooded paddy test; type: in vivo, Oryza sativa; settings: Flood
Method in brief: (§3)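 Pots were flooded to 3 cm above the soil surface at treatment, compound applied directly to the paddy water, and that depth held throughout. Plants were kept in a greenhouse for 13 to 15 days, then visually rated against untreated controls.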

duck salad = test: Test C flooded paddy test; type: in vivo, Heteranthera limosa; settings: Flood
Method in brief: as §3

[3] = Postemergence, 500 g ai/ha, 0 is no effect, 100 is complete control
[4] = Preemergence, 125 g ai/ha, 0 no effect, 100 complete control
[5] = 62 g ai/ha, Preemergence, scale 0 to 100
[6] = 125 g ai/ha, preemergence, scale 0 (no effect) to 100 (complete control)
[7] = Preemergence, 31 g ai/ha, scale 0 to 100 (0 no effect, 100 complete control)
[8] = preemergence, 250 g ai/ha, scale 0 (no effect) to 100 (complete control)
[9] = 62 g ai/ha, scale 0 to 100 (0 no effect, 100 complete control)
[10] = 250 g ai/ha, scale 0 to 100, 0 no effect, 100 complete control, 13 to 15 days

In the case of `Cn1nc(OC(F)F)c(CS(=O)(=O)c2cccc[n+]2[O-])c1C(F)(F)F` [Compound 80], the “Plant response rating, Barnyardgrass” value (barnyardgrass; Postemergence, 125 g ai/ha) is reported as 80, the “Barnyardgrass plant response rating” value (barnyardgrass; [3]) is reported as 90 and the “Barnyardgrass plant response rating” value (barnyardgrass; [4]) is reported as 90. The “Plant response rating, Barnyardgrass” value (barnyardgrass; Preemergence, 500 g ai/ha) was 100, the “Plant response rating, Pigweed” value (redroot pigweed; Postemergence, 125 g ai/ha) was 10 and the “Pigweed plant response rating” value (redroot pigweed; [3]) was 40. For the same compound, the “Pigweed plant response rating” value (redroot pigweed; [4]) was 70, the “Plant response rating, Pigweed” value (redroot pigweed; Preemergence, 500 g ai/ha) was 90 and the “Plant response rating, Velvetleaf” value (velvetleaf [1]; Postemergence, 125 g ai/ha) was 0. The “Velvetleaf plant response rating” value (velvetleaf [1]; [3]) was 60, the “Velvetleaf plant response rating” value (velvetleaf [1]; [4]) was 0 and the “Plant response rating, Velvetleaf” value (velvetleaf [1]; Preemergence, 500 g ai/ha) was 70. The “Bromegrass, Downy plant response rating” value (downy brome; [5]) was 40, the “Bromegrass, Downy plant response rating” value (downy brome; [6]) was 60 and the “Plant response rating, Bromegrass, Downy” value (downy brome; [7]) was 40. For the same compound, the “Bromegrass, Downy plant response rating” value (downy brome; [8]) was 95, the “Foxtail, Green plant response rating” value (green foxtail; [5]) was 85 and the “Foxtail, Green plant response rating” value (green foxtail; [6]) was 100. For the same compound, the “Plant response rating, Foxtail, Green” value (green foxtail; [7]) was 85, the “Foxtail, Green plant response rating” value (green foxtail; [8]) was 100 and the “Oat, Wild plant response rating” value (wild oat; [5]) was 85. The “Oat, Wild plant response rating” value (wild oat; [6]) was 95, the “Plant response rating, Oat, Wild” value (wild oat; [7]) was 70 and the “Oat, Wild plant response rating” value (wild oat; [8]) was 100. The “Surinam Grass plant response rating” value (Surinam grass; [5]) was 80, the “Surinam Grass plant response rating” value (Surinam grass; [6]) was 80 and the “Plant response rating, Surinam Grass” value (Surinam grass; [7]) was 70. The “Surinam Grass plant response rating” value (Surinam grass; [8]) was 100, the “Cocklebur plant response rating” value (cocklebur; [5]) was 0 and the “Cocklebur plant response rating” value (cocklebur; [6]) was 45. The “Plant response rating, Cocklebur” value (cocklebur; [7]) was 0, the “Cocklebur plant response rating” value (cocklebur; [8]) was 80 and the “Crabgrass, Large plant response rating” value (crabgrass; [5]) was 85. For the same compound, the “Crabgrass, Large plant response rating” value (crabgrass; [6]) was 85, the “Plant response rating, Crabgrass, Large” value (crabgrass; [7]) was 85 and the “Crabgrass, Large plant response rating” value (crabgrass; [8]) was 98. For the same compound, the “Foxtail, Giant plant response rating” value (giant foxtail; [5]) was 90, the “Foxtail, Giant plant response rating” value (giant foxtail; [6]) was 98 and the “Plant response rating, Foxtail, Giant” value (giant foxtail; [7]) was 80. The “Foxtail, Giant plant response rating” value (giant foxtail; [8]) was 100, the “Johnsongrass plant response rating” value (johnsongrass; [5]) was 85 and the “Johnsongrass plant response rating” value (johnsongrass; [6]) was 90. For the same compound, the “Plant response rating, Johnsongrass” value (johnsongrass; [7]) was 85, the “Johnsongrass plant response rating” value (johnsongrass; [8]) was 100 and the “Kochia plant response rating” value (kochia; 125 g ai/ha) was 70. For the same compound, the “Plant response rating, Kochia” value (kochia; [7]) was 0, the “Kochia plant response rating” value (kochia; 250 g ai/ha) was 100 and the “Lambsquarters plant response rating” value (lambsquarters; 125 g ai/ha) was 60. The “Lambsquarters plant response rating” value (lambsquarters; 250 g ai/ha) was 100, the “Nightshade plant response rating” value (eastern black nightshade; [5]) was 80 and the “Plant response rating, Nightshade” value (eastern black nightshade; [7]) was 50. For the same compound, the “Nightshade plant response rating” value (eastern black nightshade; [8]) was 90, the “Ragweed plant response rating” value (common ragweed; [5]) was 0 and the “Ragweed plant response rating” value (common ragweed; [6]) was 85. For the same compound, the “Ragweed plant response rating” value (common ragweed; [8]) was 100, the “Velvetleaf plant response rating” value (velvetleaf [2]; [5]) was 0 and the “Velvetleaf plant response rating” value (velvetleaf [2]; [6]) was 60. The “Plant response rating, Velvetleaf” value (velvetleaf [2]; [7]) was 0, the “Velvetleaf plant response rating” value (velvetleaf [2]; [8]) was 65 and the “Plant response rating, Rice” value (rice; [9]) was 0. The “Plant response rating, Rice” value (rice; [10]) was 50, the “Plant response rating, Ducksalad” value (duck salad; [9]) was 0 and the “Plant response rating, Ducksalad” value (duck salad; [10]) was 85.
